US9738634B2, “Heterocyclic amide compound and herbicide” (SYNGENTA PARTICIPATIONS AG, priority 2013, dated 2017)

Legend:
Type in all cases: in vivo
[1] = test system: barnyard grass; experiment: Test Example 1: weedkilling efficacy, preemergent weed treatment in the submerged state; A: barnyard grass; details: treatment dosage 252 g/ha
Method in brief: (§1)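 Pots of alluvial soil flooded 4 cm deep, sown with barnyard grass, bulrush and oval-leafed pondweed and transplanted with 2.5-leaf rice. Emulsified compound applied to the water surface on sowing day at stated g/ha; greenhouse 25–30 °C, effects assessed 3 weeks after treatment.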

[2] = test system: bulrush; experiment: Test Example 1: weedkilling efficacy, preemergent weed treatment in the submerged state; B: bulrush; details: treatment dosage 252 g/ha
Method in brief: as §1

[3] = test system: oval-leafed pondweed; experiment: Test Example 1: weedkilling efficacy, preemergent weed treatment in the submerged state; C: oval-leafed pondweed; details: treatment dosage 252 g/ha
Method in brief: as §1

[4] = test system: transplanted rice; experiment: Test Example 1: preemergent weed treatment in the submerged state, effect on crop; a: transplanted rice; details: treatment dosage 252 g/ha
Method in brief: as §1

[5] = test system: barnyard grass; experiment: Test Example 2: weedkilling efficacy, growth period weed treatment in the submerged state; A: barnyard grass; details: treatment dosage 252 g/ha
Method in brief: (§2)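 Barnyard grass, bulrush and oval-leafed pondweed sown in alluvial soil under 4 cm flooding, greenhouse 25 to 30° C. At 1-2 leaf stage, water-diluted emulsion applied to the water surface at stated g/ha dosages; effects scored 3 weeks later.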

[6] = test system: bulrush; experiment: Test Example 2: weedkilling efficacy, growth period weed treatment in the submerged state; B: bulrush; details: treatment dosage 252 g/ha
Method in brief: as §2

[7] = test system: oval-leafed pondweed; experiment: Test Example 2: weedkilling efficacy, growth period weed treatment in the submerged state; C: oval-leafed pondweed; details: treatment dosage 252 g/ha
Method in brief: as §2

[8] = test system: crabgrass; experiment: Test Example 3: weedkilling efficacy through soil treatment; D: crabgrass; details: treatment dosage 315 g/ha
Method in brief: (§3)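 Crop and weed responses were judged three weeks after a uniform surface spray of the water-diluted emulsion at the given g/ha rate. Seeds sat beneath about 1.5 cm of sterilized diluvial soil, and boxes stood in a greenhouse at 25 to 30° C.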

[9] = test system: green foxtail; experiment: Test Example 3: weedkilling efficacy through soil treatment; E: green foxtail; details: treatment dosage 315 g/ha
Method in brief: as §3

[10] = test system: wild oat; experiment: Test Example 3: weedkilling efficacy through soil treatment; G: wild oat; details: treatment dosage 315 g/ha
Method in brief: as §3

[11] = test system: black-grass; experiment: Test Example 3: weedkilling efficacy through soil treatment; H: black-grass; details: treatment dosage 315 g/ha
Method in brief: as §3

[12] = test system: Italian ryegrass; experiment: Test Example 3: weedkilling efficacy through soil treatment; I: Italian ryegrass; details: treatment dosage 315 g/ha
Method in brief: as §3

[13] = test system: Indian mallow; experiment: Test Example 3: weedkilling efficacy through soil treatment; K: Indian mallow; details: treatment dosage 315 g/ha
Method in brief: as §3

[14] = test system: redroot pigweed; experiment: Test Example 3: weedkilling efficacy through soil treatment; L: redroot pigweed; details: treatment dosage 315 g/ha
Method in brief: as §3

[15] = test system: fig-leafed goosefoot; experiment: Test Example 3: weedkilling efficacy through soil treatment; M: fig-leafed goosefoot; details: treatment dosage 315 g/ha
Method in brief: as §3

[16] = test system: chickweed; experiment: Test Example 3: weedkilling efficacy through soil treatment; N: chickweed; details: treatment dosage 315 g/ha
Method in brief: as §3

[17] = test system: corn; experiment: Test Example 3: soil treatment, effect on crop; c: corn; details: treatment dosage 315 g/ha
Method in brief: as §3

[18] = test system: soybean; experiment: Test Example 3: soil treatment, effect on crop; d: soybean; details: treatment dosage 315 g/ha
Method in brief: as §3

[19] = test system: wheat; experiment: Test Example 3: soil treatment, effect on crop; e: wheat; details: treatment dosage 315 g/ha
Method in brief: as §3

[20] = test system: beet; experiment: Test Example 3: soil treatment, effect on crop; f: beet; details: treatment dosage 315 g/ha
Method in brief: as §3

[21] = test system: crabgrass; experiment: Test Example 4: weedkilling efficacy by foliar treatment; D: crabgrass; details: treatment dosage 315 g/ha
Method in brief: (§4)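 Seeds are spot-sown into sterilized diluvial soil and covered with about 1.5 cm of soil. After 14 days' greenhouse growth at 25 to 30° C, plants are sprayed on stems and leaves with diluted emulsion at the stated g/ha rate, then scored at 3 weeks.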

[22] = test system: green foxtail; experiment: Test Example 4: weedkilling efficacy by foliar treatment; E: green foxtail; details: treatment dosage 315 g/ha
Method in brief: as §4

[23] = test system: wild oat; experiment: Test Example 4: weedkilling efficacy by foliar treatment; G: wild oat; details: treatment dosage 315 g/ha
Experimental: Testing of Weedkilling Efficacy by Foliar Treatment
Sterilized diluvial soil was introduced into 21 cm long, 13 cm wide, 7 cm deep plastic boxes, and seeds of crabgrass, green foxtail, barnyard grass, wild oat, black-grass, Italian ryegrass, common wind-grass, Indian mallow, redroot pigweed, fig-leafed goosefoot, chickweed, catchweed, birds-eye speedwell, corn, soybean, rice, wheat, beet and rapeseed were each spot-sown, and covered with about 1.5 cm of soil, then the plants were grown in a greenhouse at 25 to 30° C.
After they had grown for 14 days, emulsions of compounds of the present invention prepared according to compounding example 2 were diluted with water to give the specified dosages, and applied uniformly onto the stem and leaf parts with a small sprayer. 3 weeks after the pesticide treatment the effect on each type of plant was investigated on the basis of the assessment criteria of test example 1.
A: barnyard grass, B: bulrush, C: oval-leafed pondweed, D: crabgrass, E: green foxtail, F: barnyard grass, G: wild oat, H: black-grass, I: Italian ryegrass, J: common wind-grass, K: Indian mallow, L: redroot pigweed, M: fig-leafed goosefoot, N: chickweed, O: catchweed, p: birds-eye speedwell, a: transplanted rice, b: directly sown rice, c: corn, d: soybean, e: wheat, f: beet, g: rapeseed
Further, pesticide dosage (g/ha) indicates the concentration regulated such that treatment was with only the stated number of grams (g), when calculated per hectare (ha).

[24] = test system: black-grass; experiment: Test Example 4: weedkilling efficacy by foliar treatment; H: black-grass; details: treatment dosage 315 g/ha
Method in brief: as §4

[25] = test system: Italian ryegrass; experiment: Test Example 4: weedkilling efficacy by foliar treatment; I: Italian ryegrass; details: treatment dosage 315 g/ha
Method in brief: as §4

[26] = test system: Indian mallow; experiment: Test Example 4: weedkilling efficacy by foliar treatment; K: Indian mallow; details: treatment dosage 315 g/ha
Method in brief: as §4

[27] = test system: redroot pigweed; experiment: Test Example 4: weedkilling efficacy by foliar treatment; L: redroot pigweed; details: treatment dosage 315 g/ha
Method in brief: as §4

[28] = test system: chickweed; experiment: Test Example 4: weedkilling efficacy by foliar treatment; N: chickweed; details: treatment dosage 315 g/ha
Method in brief: as §4

[29] = test system: catchweed; experiment: Test Example 4: weedkilling efficacy by foliar treatment; O: catchweed; details: treatment dosage 315 g/ha
Method in brief: as §4

[30] = test system: birds-eye speedwell; experiment: Test Example 4: weedkilling efficacy by foliar treatment; p: birds-eye speedwell; details: treatment dosage 315 g/ha
Method in brief: as §4

[31] = test system: directly sown rice; experiment: Test Example 4: foliar treatment, effect on crop; b: directly sown rice; details: treatment dosage 315 g/ha
Method in brief: as §4

[32] = test system: corn; experiment: Test Example 4: foliar treatment, effect on crop; c: corn; details: treatment dosage 315 g/ha
Method in brief: as §4

[33] = test system: soybean; experiment: Test Example 4: foliar treatment, effect on crop; d: soybean; details: treatment dosage 315 g/ha
Method in brief: as §4

[34] = test system: wheat; experiment: Test Example 4: foliar treatment, effect on crop; e: wheat; details: treatment dosage 315 g/ha
Method in brief: as §4

CC1=C(c2ccccc2)C(=O)N(C(C)(C)C(=O)Nc2cncc(F)c2)CO1 [B-3-01]
A (barnyard grass) weedkilling efficacy grade [1]: 5 (weed kill ratio 90% or more, (practically complete withering)) | B (bulrush) weedkilling efficacy grade [2]: 5 (weed kill ratio 90% or more, (practically complete withering)) | C (oval-leafed pondweed) weedkilling efficacy grade [3]: 5 (weed kill ratio 90% or more, (practically complete withering)) | a (transplanted rice) effect on crop grade [4]: 0 (weed kill ratio 5% or less (practically no effect)) | A (barnyard grass) weedkilling efficacy grade [5]: 3 (weed kill ratio 40% or more, less than 70%) | B (bulrush) weedkilling efficacy grade [6]: 5 (weed kill ratio 90% or more, (practically complete withering)) | C (oval-leafed pondweed) weedkilling efficacy grade [7]: 4 (weed kill ratio 70% or more, less than 90%) | D (crabgrass) weedkilling efficacy grade [8]: 5 (weed kill ratio 90% or more, (practically complete withering)) | E (green foxtail) weedkilling efficacy grade [9]: 5 (weed kill ratio 90% or more, (practically complete withering)) | G (wild oat) weedkilling efficacy grade [10]: 5 (weed kill ratio 90% or more, (practically complete withering)) | H (black-grass) weedkilling efficacy grade [11]: 5 (weed kill ratio 90% or more, (practically complete withering)) | I (Italian ryegrass) weedkilling efficacy grade [12]: 5 (weed kill ratio 90% or more, (practically complete withering)) | K (Indian mallow) weedkilling efficacy grade [13]: 2 (weed kill ratio 20% or more, less than 40%) | L (redroot pigweed) weedkilling efficacy grade [14]: 4 (weed kill ratio 70% or more, less than 90%) | M (fig-leafed goosefoot) weedkilling efficacy grade [15]: 5 (weed kill ratio 90% or more, (practically complete withering)) | N (chickweed) weedkilling efficacy grade [16]: 4 (weed kill ratio 70% or more, less than 90%) | c (corn) effect on crop grade [17]: 3 (weed kill ratio 40% or more, less than 70%) | d (soybean) effect on crop grade [18]: 0 (weed kill ratio 5% or less (practically no effect)) | e (wheat) effect on crop grade [19]: 5 (weed kill ratio 90% or more, (practically complete withering)) | f (beet) effect on crop grade [20]: 4 (weed kill ratio 70% or more, less than 90%) | D (crabgrass) weedkilling efficacy grade [21]: 5 (weed kill ratio 90% or more, (practically complete withering)) | E (green foxtail) weedkilling efficacy grade [22]: 5 (weed kill ratio 90% or more, (practically complete withering)) | G (wild oat) weedkilling efficacy grade [23]: 5 (weed kill ratio 90% or more, (practically complete withering)) | H (black-grass) weedkilling efficacy grade [24]: 5 (weed kill ratio 90% or more, (practically complete withering)) | I (Italian ryegrass) weedkilling efficacy grade [25]: 5 (weed kill ratio 90% or more, (practically complete withering)) | K (Indian mallow) weedkilling efficacy grade [26]: 3 (weed kill ratio 40% or more, less than 70%) | L (redroot pigweed) weedkilling efficacy grade [27]: 3 (weed kill ratio 40% or more, less than 70%) | N (chickweed) weedkilling efficacy grade [28]: 2 (weed kill ratio 20% or more, less than 40%) | O (catchweed) weedkilling efficacy grade [29]: 4 (weed kill ratio 70% or more, less than 90%) | P (birds-eye speedwell) weedkilling efficacy grade [30]: 3 (weed kill ratio 40% or more, less than 70%) | b (directly sown rice) effect on crop grade [31]: 5 (weed kill ratio 90% or more, (practically complete withering)) | c (corn) effect on crop grade [32]: 4 (weed kill ratio 70% or more, less than 90%) | d (soybean) effect on crop grade [33]: 4 (weed kill ratio 70% or more, less than 90%) | e (wheat) effect on crop grade [34]: 1 (weed kill ratio 5% or more, less than 20%)
